# Measurements: patent US12404250B2, “PARP inhibitors for treating cancer and asthma” (Oregon Health & Science University, priority 2018, dated 2025)
# How the values were obtained:
# PARP7 = molecular target: T1, PARP7 (Homo sapiens, UniProt Q7Z3E1); assay: In vitro IC50, PARP7; format: biochemical; settings: SEM from a minimum of three dose-response experiments
# T1 sequence (Q7Z3E1 1-657): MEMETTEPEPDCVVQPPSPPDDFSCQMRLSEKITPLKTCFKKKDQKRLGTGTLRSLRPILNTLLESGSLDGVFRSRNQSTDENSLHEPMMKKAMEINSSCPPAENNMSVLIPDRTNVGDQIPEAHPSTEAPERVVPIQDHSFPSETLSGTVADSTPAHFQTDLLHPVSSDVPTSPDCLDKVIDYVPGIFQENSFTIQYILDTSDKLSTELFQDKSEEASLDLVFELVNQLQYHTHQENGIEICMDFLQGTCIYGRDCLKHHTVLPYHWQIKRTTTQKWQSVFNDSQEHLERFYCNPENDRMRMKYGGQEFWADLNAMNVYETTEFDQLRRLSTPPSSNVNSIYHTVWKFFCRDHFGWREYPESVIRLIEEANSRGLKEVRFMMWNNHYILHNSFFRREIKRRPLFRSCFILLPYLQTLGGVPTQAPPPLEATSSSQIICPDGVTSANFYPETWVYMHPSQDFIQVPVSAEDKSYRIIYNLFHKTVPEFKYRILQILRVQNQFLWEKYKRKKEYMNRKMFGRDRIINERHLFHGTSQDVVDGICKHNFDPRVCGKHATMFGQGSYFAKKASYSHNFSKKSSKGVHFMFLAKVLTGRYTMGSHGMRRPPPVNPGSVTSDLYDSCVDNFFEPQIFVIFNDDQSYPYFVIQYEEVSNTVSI
# PARP8 = molecular target: T2, PARP8 (Homo sapiens, UniProt Q8N3A8); assay: In vitro IC50, immunoprecipitated GFP-PARP8 auto-MARylation; format: biochemical
# T2 construct: expressed in transfected cells; host or cells: HEK 293T
# T2 sequence (Q8N3A8 1-854): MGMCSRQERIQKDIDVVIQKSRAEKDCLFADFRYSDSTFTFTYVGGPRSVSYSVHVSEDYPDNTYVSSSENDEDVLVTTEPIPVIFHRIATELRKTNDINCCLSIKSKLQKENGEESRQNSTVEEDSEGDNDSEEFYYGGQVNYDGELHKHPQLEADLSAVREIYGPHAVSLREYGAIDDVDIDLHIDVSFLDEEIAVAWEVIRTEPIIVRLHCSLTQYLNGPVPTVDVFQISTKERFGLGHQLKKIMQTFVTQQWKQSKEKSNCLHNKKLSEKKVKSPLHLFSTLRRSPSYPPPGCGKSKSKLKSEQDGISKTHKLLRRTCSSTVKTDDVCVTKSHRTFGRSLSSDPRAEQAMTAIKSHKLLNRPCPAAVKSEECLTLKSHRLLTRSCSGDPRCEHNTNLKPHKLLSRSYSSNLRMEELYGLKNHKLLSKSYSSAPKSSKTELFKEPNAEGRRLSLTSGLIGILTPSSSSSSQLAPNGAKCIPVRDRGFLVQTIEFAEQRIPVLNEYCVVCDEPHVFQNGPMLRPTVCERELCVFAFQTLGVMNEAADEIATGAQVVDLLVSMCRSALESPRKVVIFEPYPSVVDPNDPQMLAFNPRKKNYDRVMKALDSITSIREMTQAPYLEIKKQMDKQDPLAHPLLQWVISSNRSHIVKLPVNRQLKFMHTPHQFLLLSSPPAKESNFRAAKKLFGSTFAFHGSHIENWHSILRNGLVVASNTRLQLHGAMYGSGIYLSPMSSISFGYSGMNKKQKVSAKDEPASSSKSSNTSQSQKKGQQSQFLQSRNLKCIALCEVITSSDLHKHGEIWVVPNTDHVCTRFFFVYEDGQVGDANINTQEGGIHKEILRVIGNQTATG
# Experimental: (§1) Auto-MARylation was analyzed by Western blot with an ADP-ribose (ADPr) binding reagent (uncropped blots shown below).
# PARP10cat = molecular target: T3, PARP10cat (Homo sapiens, UniProt Q53GL7); assay: In vitro IC50, PARP10cat; format: biochemical; settings: SEM from a minimum of three dose-response experiments
# T3 construct: bcat; cat; PARP11
# T3 sequence (Q53GL7 806-1025 limits assumed): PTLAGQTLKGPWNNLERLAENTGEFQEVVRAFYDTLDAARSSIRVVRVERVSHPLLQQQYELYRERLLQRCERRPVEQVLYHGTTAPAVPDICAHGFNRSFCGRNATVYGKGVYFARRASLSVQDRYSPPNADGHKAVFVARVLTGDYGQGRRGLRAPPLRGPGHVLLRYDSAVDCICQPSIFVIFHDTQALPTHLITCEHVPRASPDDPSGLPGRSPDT
# GFP-PARP11 = molecular target: T4, GFP-PARP11 (Homo sapiens, UniProt Q9NR21); assay: GFP-PARP11 localization at the nuclear envelope in HeLa cells; format: cell-based; settings: HeLa cells transfected with GFP-PARP11, 1 μM for 1 or 18 h
# T4 construct: expressed in transfected cells; host or cells: HeLa
# T4 sequence (Q9NR21 1-338): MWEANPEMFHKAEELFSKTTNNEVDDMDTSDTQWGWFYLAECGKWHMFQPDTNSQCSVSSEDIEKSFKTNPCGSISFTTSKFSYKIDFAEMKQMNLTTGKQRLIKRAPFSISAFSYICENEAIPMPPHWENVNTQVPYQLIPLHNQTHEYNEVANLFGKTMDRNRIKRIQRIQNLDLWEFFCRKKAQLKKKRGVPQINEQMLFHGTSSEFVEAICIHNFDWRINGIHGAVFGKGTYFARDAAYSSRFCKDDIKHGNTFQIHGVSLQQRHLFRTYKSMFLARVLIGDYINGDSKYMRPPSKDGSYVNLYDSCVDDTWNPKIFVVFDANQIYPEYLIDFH
# Experimental: FIGS. 5A and 5B depict dissociation from the nuclear envelope in HeLa cells following ITK7 (Example 7) treatment. […] HeLa cells were transfected with GFP-PARP11 grown on glass cover-slips. After ITK7 (1 μM) treatment for 1 or 18 h cells were fixed and mounted using mounting medium containing DAPI. Images were taken on the Olympus FLUOVIEW™ 2000 microscope using an 60x/NA 1.40 oil objective (scale bar 10 μm).
# HeLa cells were transfected with GFP-PARP11 grown on glass cover-slips. After ITK7 (1 μM) treatment for 1 or 18 h cells were fixed and mounted using mounting medium containing DAPI. Images were taken on the Olympus FLUOVIEW™ 2000 microscope using an 60x/NA 1.40 oil objective (scale bar 10 μm).
# PARP16 = molecular target: T5, PARP16 (Homo sapiens, UniProt Q8N5Y8); assay: In vitro IC50, immunoprecipitated GFP-PARP16 auto-MARylation; format: biochemical
# T5 construct: expressed in transfected cells; host or cells: HEK 293T
# T5 sequence (Q8N5Y8 1-322): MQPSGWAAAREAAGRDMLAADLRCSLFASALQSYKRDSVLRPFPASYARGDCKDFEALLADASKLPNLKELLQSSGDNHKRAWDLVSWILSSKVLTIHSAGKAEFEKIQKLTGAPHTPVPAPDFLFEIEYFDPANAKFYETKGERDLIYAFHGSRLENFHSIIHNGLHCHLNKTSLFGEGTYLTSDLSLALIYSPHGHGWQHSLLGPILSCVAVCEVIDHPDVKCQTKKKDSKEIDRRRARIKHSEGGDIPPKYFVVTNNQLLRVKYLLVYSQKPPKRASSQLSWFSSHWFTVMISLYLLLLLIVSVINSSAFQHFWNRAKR
# Experimental: as §1
# PARP1/2 = molecular target: T6, PARP1/2 (Homo sapiens, UniProt P09874); assay: H2O2-stimulated PARP1/2 activity in HEK 293T cells (Western blot); format: cell-based; settings: H2O2 500 μM for 15 min, Western blot with ADPr binding reagent
# T6 construct: expressed in transfected cells; host or cells: HEK 293T
# T6 sequence (P09874 2-1014): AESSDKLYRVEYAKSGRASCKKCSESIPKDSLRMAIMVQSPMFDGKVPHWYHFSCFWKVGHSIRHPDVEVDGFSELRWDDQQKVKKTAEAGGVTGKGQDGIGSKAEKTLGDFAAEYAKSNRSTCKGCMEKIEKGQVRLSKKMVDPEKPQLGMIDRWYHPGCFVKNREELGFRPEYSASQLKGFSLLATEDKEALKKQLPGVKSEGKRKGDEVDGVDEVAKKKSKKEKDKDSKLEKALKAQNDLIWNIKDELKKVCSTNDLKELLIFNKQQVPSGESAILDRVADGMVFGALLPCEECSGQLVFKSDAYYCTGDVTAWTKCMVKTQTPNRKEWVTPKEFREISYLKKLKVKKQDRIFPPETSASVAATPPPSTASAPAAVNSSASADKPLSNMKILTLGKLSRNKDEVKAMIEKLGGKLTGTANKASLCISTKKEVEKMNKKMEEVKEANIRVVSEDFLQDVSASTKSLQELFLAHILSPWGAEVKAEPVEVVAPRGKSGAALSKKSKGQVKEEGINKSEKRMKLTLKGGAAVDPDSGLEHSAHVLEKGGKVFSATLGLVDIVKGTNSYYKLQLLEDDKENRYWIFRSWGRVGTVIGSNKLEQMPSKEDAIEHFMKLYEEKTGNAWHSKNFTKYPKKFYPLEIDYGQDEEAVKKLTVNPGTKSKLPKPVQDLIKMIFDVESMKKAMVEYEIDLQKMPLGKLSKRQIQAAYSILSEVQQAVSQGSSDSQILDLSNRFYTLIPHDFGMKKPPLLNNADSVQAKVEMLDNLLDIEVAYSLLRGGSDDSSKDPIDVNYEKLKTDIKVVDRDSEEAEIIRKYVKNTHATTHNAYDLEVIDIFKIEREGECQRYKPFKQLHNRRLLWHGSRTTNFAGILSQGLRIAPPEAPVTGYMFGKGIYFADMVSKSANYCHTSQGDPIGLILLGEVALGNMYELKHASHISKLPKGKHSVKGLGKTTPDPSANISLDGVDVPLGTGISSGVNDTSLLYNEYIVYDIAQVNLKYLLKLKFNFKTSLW
# Experimental: Lysates were prepared and PAR/MARylation was analyzed by Western blot with an ADP-ribose (ADPr) binding reagent. Blot was also probed with antibodies for GFP and actin. The band of interest represents auto-PARylated GFP-PARP1. […] Lysates were prepared and PAR/MARylation was analyzed by Western blot with an ADP-ribose (ADPr) binding reagent. Blot was also probed with antibodies for GFP and actin.
# Lysates were prepared and PAR/MARylation was analyzed by Western blot with an ADP-ribose (ADPr) binding reagent. Blot was also probed with antibodies for GFP and actin. The band of interest represents auto-PARylated GFP-PARP1.
Structure (SMILES),IC50 (PARP7) [µM],IC50 (PARP8) [µM],IC50 (PARP10cat) [µM],Dissociation of GFP-PARP11 from the nuclear envelope (GFP-PARP11),IC50 (PARP16) [µM],Inhibition of H2O2-mediated PARP1 PARylation (PARP½ activity) in cells (PARP1/2)
"CC#Cc1ccc2c(=O)[nH]c(CSc3ccc(C(=O)O)cc3)nc2c1C [ITK6, 4-(((8-methyl-4-oxo-7-(prop-1-yn-1-yl)-3,4-dihydroquinazolin-2-yl)methyl)thio) benzoic acid]",24.6 ± 0.5,> 3,0.156 ± 0.018,,,
"CC#Cc1ccc2c(=O)[nH]c(CSc3ncccn3)nc2c1C [ITK7, 8-methyl-7-(prop-1-yn-1-yl)-2-((pyrimidin-2-ylthio)methyl)quinazolin-4(3H)-one]",2.46 ± 0.5,> 3,9.28 ± 1.57,causes GFP-PARP11 to dissociate from the nuclear envelope,> 3,has no effect
